Patent US20260217712A1, “SOLID STATE FORMS OF MNK INHIBITORS” (4E Therapeutics, Inc., priority 2023, published 2026)
≈ marks a conversion by molar mass, not a printed value. Entries after “also recorded” stand apart in the source; their conditions may differ. Read-outs that look alike come from different tables or passages of the source.

Assays:
Format in all cases: physicochemical
[1] = Gravimetric vapor sorption (GVS) and XRPD post-GVS
Procedure: Sorption isotherms were obtained using a SMS DVS Intrinsic moisture sorption analyzer, controlled by DVS Intrinsic Control software. The sample temperature was maintained at 25° C. by the instrument controls. The humidity was controlled by mixing streams of dry and wet nitrogen, with a total flow rate of 200 mL/min. The relative humidity was measured by a calibrated Rotronic probe (dynamic range of 1.0-100% RH), located near the sample. The weight change, (mass relaxation) of the sample as a function of % RH was constantly monitored by a microbalance (accuracy±0.005 mg).
Typically, 5-30 mg of sample was placed in a tared mesh stainless steel basket under ambient conditions. The sample was loaded and unloaded at 40% RH and 25° C. (typical room conditions). A moisture sorption isotherm was performed as outlined below (2 scans per complete cycle). The standard isotherm was performed at 25° C. at 10% RH intervals over a 0-90% RH range. Typically, a double cycle (4 scans) was carried out. Data analysis was carried out within Microsoft Excel using the DVS Analysis Suite.
Sorption isotherms were obtained using a Hiden IGASorp moisture sorption analyser, controlled by Isochema HISorp software. The sample temperature was maintained at 25° C. by a Grant LT ecocool 150 re-circulating water bath. The humidity was controlled by mixing streams of dry and wet nitrogen, with a total flow rate of 250 ml·min-1. The relative humidity was measured by a calibrated Vaisala RH probe (dynamic range of 0-95% RH), located near the sample. The weight change, (mass relaxation) of the sample as a function of % RH was constantly monitored by the microbalance (accuracy±0.001 mg).
Typically, 20-30 mg of sample was placed in a tared mesh stainless steel basket under ambient conditions. The sample was loaded and unloaded at 40% RH and 25° C. (typical room conditions). A moisture sorption isotherm was performed as outlined below (2 scans giving 1 complete cycle). The standard isotherm was performed at 25° C. at 10% RH intervals over a 0-90% RH range. Typically, a double cycle (4 scans) was carried out. Data analysis was carried out within the Isochema HISorp 2019 software and exported into Microsoft Excel to present accordingly.

[2] = Static storage at 25° C./97% RH, XRPD and HPLC post storage; details: 8 days, listed as Lot A
pKa measurements = details: listed as Lot A
[3] = Static storage at 40° C./75% RH, XRPD and HPLC post storage; details: 40° C./75% RH, 8 days
Procedure: Purity analysis was performed on an Agilent HP1100/Infinity II 1260 series system equipped with a diode array detector and using OpenLAB software. The full method details are provided below:
Poorly Crystalline Structure (I) (from Lot A, Free Form Pattern 1, 30 mg) was dissolved in 50 volumes of THF:Water 9:1 at 60° C. in 13 vials, stirring at 500 RPM (small amount of debris present). The solutions were then treated with 1.1 molar equivalents (90/180 μL) of selected counter-ions (Table 7). The resulting solutions were then cooled down to 5° C. at 0.1° C./min and were held at this temperature for 2 days. The suspensions were filtered and dried under suction for 20 min. The gummed sample was left with the cap off to promote crystallization. All solids obtained were initially analyzed by XRPD and stored in glass HPLC vials for subsequent analysis.
Any solids obtained were analyzed by XRPD, ^1H NMR, HPLC, TGA, DSC, XRPD post storage at 40° C./75% RH after 7 days & IC if necessary. Additional microscopy techniques (PLM & HSM) were used to complement the above analysis where appropriate.

[4] = Initial solubility testing in solvents; details: up to 50 vol, up to 50° C.
Procedure: Structure (I) (20 mg) from Lot A (free form Pattern 1) was charged into HPLC vials, treated with solvent, 10 volumes at a time, until the material fully dissolved or a maximum of 50 volumes had been added. Once 50 volumes was reached without dissolution, the temperature was increased to 50° C. To each suspension, 1.1 molar equiv. (60 μL) of HCl (1M in THF) was added, stirred for 5 min, and slowly cooled to 5° C. at 0.1° C./min and held at that temperature overnight. All solids were then isolated by filtration through PTFE frits and dried under suction for 20 min. The samples were analyzed by XRPD.

[5] = Thermodynamic solubility in simulated media and buffers; details: 25 °C, thermodynamic from solid
Procedure: The thermodynamic solubility for Pattern 11 was determined in 3 simulated media and two buffers. […]

XRPD under vacuum = details: vacuum released for 30 min, ambient conditions
Description: (§1) XRPD diffractograms were collected on a PANalytical Empyrean diffractometer using Cu Kα radiation (45 kV, 40 mA, λ=1.544398 Å) in reflection geometry. The instrument was fitted with an Anton Paar CHC plus+ stage fitted with graphite/Kapton windows and equipped with air cooling coupled or a low vacuum pump system using an Edwards RV3 pump. A programmable divergence slit (in automatic mode), with a 10 mm fixed incident beam mask, Ni filter and 0.04 rad Soller slits were used on the incident beam. A PIXcel3D detector, placed on the diffracted beam, was fitted with a programmable anti-scatter slit (in automatic mode) and 0.04 rad Soller slits.
For XRPD under vacuum the samples were prepared and analyzed in an Anton Paar chromed sample holder. The sample temperature was kept constant throughout at 25° C. The measurement parameters are as per the standard screening data collection method (detailed above). An initial measurement was taken before the vacuum was initiated and then subsequently at 10 min intervals. Data collection was stopped after three consecutive scans showing no change.

[6] = Variable temperature XRPD (VT-XRPD); details: 250° C.
Description: as §1
For variable temperature (VT-XRPD) experiments the samples were prepared and analyzed in an Anton Paar chromed sample holder. The sample chamber was under ambient atmosphere and a heating/cooling rate of 10° C./min was used with a 2 min isothermal hold before the measurement started. The measurement parameters are as per the standard screening data collection method (detailed above). Measurements were taken at the following temperatures: 25, 80, 170, 250, and 25° C.

[7] = Drying / standing under ambient conditions, XRPD; details: ambient conditions
Procedure: Structure (I) (Sample 28-2, 30 mg, Poorly Crystalline Pattern 3) was wetted with solvent (300 μL, 10 vol) according to Table 30 and put into a shaker at 50° C. for 6 days. The suspensions were isolated using filter cartridges and positive pressure. A XRPD pattern was collected for each sample. […] This characterization is presented and discussed in Examples detailed herein. (see, e.g., FIG. 75)

[8] = Gravimetric solubility measurements from competitive slurry samples; details: organic solvent or mixture, thermodynamic from solid, room temperature
Description: In order to determine that Pattern 3 was not simply being dissolved in the solvent systems when the solid was introduced, gravimetric solubility measurements were made using the samples at room temperature. […] There was insufficient solubility at room temperature to dissolve the Pattern 3 present in the competitive slurry experiments.

[9] = Competitive slurries of Pattern 3 and Pattern 11, XRPD; details: competitive slurry, solvent and temperature per sample; for XRPD after 7 days: 20 vol
Procedure: A solid mixture of Structure (I) Pattern 3 (from Lot B, 300 mg) and Pattern 11 (Sample 35-1, 300 mg) was mixed for 3 hours using a turbula mixer.
The solid mixture (30 mg) was suspended in solvent (dried with molecular sieves, 600 μL, 20 vol) and either stirred in the fridge, shaken at RT or 55° C. After 7 days, an aliquot of each suspension was analyzed by XRPD. Samples that were still a mixture of forms were placed back into fridge/shakers for a further 10 days and re-analyzed (results shown in Table 36).
Competitive slurry experiments at 55° C., along with one at 5° C., were repeated using a saturated solution as the solvent mixture to minimize dissolution that may have occurred at temperatures other than room temperature.
A saturated solution of THF/Water (9:1) (5 mL) with Structure (I) (from Lot B) was equilibrated at 55° C. overnight in a shaker. The solution was filtered using 0.45 μm nylon filter before use.
A solid mixture of Pattern 3 and Pattern 11 (30 mg) was suspended in the saturated solution (600 μL, 20 vol) and either stirred in the fridge (5° C.) or shaken at 55° C. After 1 day, aliquots of the suspensions were analyzed by XRPD. Both samples were placed back into fridge/shaker. After a total of 11 days, the samples were removed from fridge/shaker. Sample 38-2 was filtered before XRPD, Sample 38-1 was pipetted onto the XRPD holder and allowed to dry before analysis (solid passed through filter).

Cc1cc(Nc2cc(N)ncn2)c(=O)n2c1C(=O)NC21CCC2(CC2)CC1 [Pattern 1]
GVS mass change expressed as water ([1]; 0-90% RH): ~90% RH, exhibiting a slight hysteresis (ca. 6 mol eq water),
Post GVS XRPD form ([1]; after double cycle GVS, listed as Lot A): unchanged; also recorded: showed that the solid form remained as poorly crystalline
hygroscopicity (in words) ([1]; listed as Lot A): highly hygroscopic. XRPD of the sample after the analysis
HPLC purity after storage at 25° C./97% RH (8 days) [2]: HPLC-97.5%
XRPD after storage at 25° C./97% RH (8 days) [2]: XRPD-poorly crystalline Pattern 1 (no change)
acidic pKa (acidic center) (pKa measurements): Acidic: 11.49
basic pKa (pKa measurements): Basic: 4.73
HPLC after storage at 40° C./75% RH (8 days) [3]: HPLC-98.2%
XRPD after storage at 40° C./75% RH (8 days) ([3]; listed as Lot A): unchanged; also recorded: XRPD-poorly crystalline Pattern 1 (no change)
solubility in solvents (in words) [4]: insoluble in most solvents
solubility thermodynamic ([5]; simulated gastric fluid, SGF (pH 1.4), read-out: Thermodynamic solubility in simulated media, SGF): 130 µg/mL (≈ 0.355 mM)
solubility thermodynamic ([5]; FaSSIF (pH 6.7), read-out: Thermodynamic solubility in simulated media, FaSSIF): 6 µg/mL (≈ 0.0164 mM)
solubility thermodynamic ([5]; FeSSIF (pH 5.1), read-out: Thermodynamic solubility in simulated media, FeSSIF): 20 µg/mL (≈ 0.0546 mM)

Cc1cc(Nc2cc(N)ncn2)c(=O)n2c1C(=O)NC21CCC2(CC2)CC1 [Pattern 10]
XRPD after vacuum released (XRPD under vacuum): converted back to Pattern 3
VT-XRPD form at 250° C. [6]: partially converted to Pattern 11
form under ambient conditions (XRPD after ambient overnight) [7]: converted back to Pattern 3

Cc1cc(Nc2cc(N)ncn2)c(=O)n2c1C(=O)NC21CCC2(CC2)CC1 [Pattern 36-8]
solubility ([8]; Toluene): 2300 µg/mL (≈ 6.28 mM)
XRPD after 7 days [9]: Patterns 3 and 11
XRPD after 17 days [9]: Patterns 3 and 11

Cc1cc(Nc2cc(N)ncn2)c(=O)n2c1C(=O)NC21CCC2(CC2)CC1 [Pattern 36-9]
solubility ([8]; IPA/Water (95:5)): 3800 µg/mL (≈ 10.4 mM)
XRPD after 7 days [9]: Patterns 3 and 11
XRPD after 17 days [9]: Patterns 3 and 11

Cc1cc(Nc2cc(N)ncn2)c(=O)n2c1C(=O)NC21CCC2(CC2)CC1 [Pattern 36-10]
solubility ([8]; THF/Water (9:1)): 8100 µg/mL (≈ 22.1 mM)
XRPD after 7 days [9]: Patterns 3 and 11
XRPD after 17 days [9]: Patterns 3 and 11
